Reference: patent US20250382277A1, “SMALL MOLECULE INHIBITORS OF DYRK/CLK AND USES THEREOF” (Arizona Board of Regents on Behalf of the University of …, priority 2022, published 2025)

How the values were obtained:
[1] = system: WNT signaling; assay: WNT reporter assay (TopGFP reporter); format: cell-based; conditions: Human Colonic Epithelial Cells (HCEC) with TopGFP reporter, stimulated with 10 μM CHIR99021, 24 hours
Excerpt: KDs were obtained from Eurofins.

[2] = molecular target: DYRK1A (Homo sapiens, UniProt Q13627); assay: biochemical
Method: KDs were obtained from Eurofins. The KdELECT Kinase Assay Panel enables quantitated compound binding affinity against any kinase assay. Inhibitor binding constants (Kd values) are calculated from duplicate 11-point dose-response curves. Measurements are made under optimized conditions that generate true thermodynamic Kd values which facilitate direct comparison of inhibitor affinity across kinases.

Compound | EC50 [1] | Kd [2]
Nc1cc(-c2ccc3nccc(-c4cnc(N5CCOCC5)c(F)c4)c3c2)ccn1 [Compound 13, 4-(4-(5-fluoro-6-morpholinopyridin-3-yl)quinolin-6-yl)pyridin-2-amine] | 100 to 1000 nM | 
Nc1cc(-c2ccc3ncnc(-c4ccnc(N5CCOCC5)c4)c3c2)ccn1 [Compound 14, 4-(4-(2-morpholinopyridin-4-yl)quinazolin-6-yl)pyridin-2-amine] | > 1000 nM | < 100 nM
COc1ccc(-c2ncnc3ccc(-c4ccnc(N)c4)cc23)cc1C [Compound 21, 4-(4-(4-methoxy-3-methylphenyl)quinazolin-6-yl)pyridin-2-amine] | 100 to 1000 nM | < 100 nM
Nc1cc(-c2ccc3ncnc(-c4cnc(N5CCC(N6CCOCC6)CC5)c(F)c4)c3c2)ccn1 [Compound 19, 4-(4-(5-fluoro-6-(4-morpholinopiperidin-1-yl)pyridin-3-yl)quinazolin-6-yl)pyridin-2-amine] | 100 to 1000 nM | < 100 nM
Nc1cc(-c2ccc3ncnc(-c4ccc(N5CCS(=O)(=O)CC5)cc4)c3c2)ccn1 [Compound 6, 4-(4-(6-(2-aminopyridin-4-yl)quinazolin-4-yl)phenyl)thiomorpholine 1,1-dioxide] |  | < 100 nM
Nc1cc(-c2ccc3ncnc(-c4ccc(N5CCNCC5)c(F)c4)c3c2)ccn1 [Compound 35, 4-(4-(3-fluoro-4-(piperazin-1-yl)phenyl)quinazolin-6-yl)pyridin-2-amine] | 100 to 1000 nM | < 100 nM
CN1CCN(c2ccc(-c3ncnc4ccc(-c5ccnc(N)c5)cc34)cc2Cl)CC1 [Compound 62, 4-(4-(3-chloro-4-(4-methylpiperazin-1-yl)phenyl)quinazolin-6-yl)pyridin-2-amine] | < 100 nM | 
COCCN1CCN(c2ccc(-c3ncnc4ccc(-c5ccnc(N)c5)cc34)cc2F)CC1 [Compound 54, 4-(4-(3-fluoro-4-(4-(2-methoxyethyl)piperazin-1-yl)phenyl)quinazolin-6-yl)pyridin-2-amine] | < 100 nM | < 100 nM
Nc1cc(-c2ccc3ncnc(-c4cc(F)cc(N5CCOCC5)c4)c3c2)ccn1 [Compound 5, 4-(4-(3-fluoro-5-morpholinophenyl)quinazolin-6-yl)pyridin-2-amine] |  | < 100 nM
CC(=O)N1CCN(c2ccc(-c3ncnc4ccc(-c5ccnc(N)c5)cc34)cc2F)CC1 [Compound 34, 1-(4-(4-(6-(2-aminopyridin-4-yl)quinazolin-4-yl)-2-fluorophenyl)piperazin-1-yl)ethan-1-one] | 100 to 1000 nM | < 100 nM
CC(=O)N1CC2(C1)CN(c1ccc(-c3ncnc4ccc(-c5ccnc(N)c5)cc34)cc1)C2 [Compound 44, 41-(6-(4-(6-(2-aminopyridin-4-yl)quinazolin-4-yl)phenyl)-2,6-diazaspiro[3.3]heptan-2-yl)ethan-1-one] | 100 to 1000 nM | < 100 nM
CN1CCN(c2c(F)cc(-c3ncnc4ccc(-c5ccnc(N)c5)cc34)cc2F)CC1 [Compound 31, 4-(4-(3,5-difluoro-4-(4-methylpiperazin-1-yl)phenyl)quinazolin-6-yl)pyridin-2-amine] | 100 to 1000 nM | < 100 nM
Nc1nccc(-c2ccc3ncnc(-c4ccc(N5CCOCC5)c(F)c4)c3c2)n1 [Compound 15, 4-(4-(3-fluoro-4-morpholinophenyl)quinazolin-6-yl)pyrimidin-2-amine] | 100 to 1000 nM | < 100 nM
Cc1cc(-c2ncnc3ccc(-c4ccnc(N)c4)cc23)ccc1N1CCN(C)CC1 [Compound 61, 4-(4-(3-methyl-4-(4-methylpiperazin-1-yl)phenyl)quinazolin-6-yl)pyridin-2-amine] | 100 to 1000 nM | 
Nc1cc(-c2ccc3ncnc(-c4ccc(N5CCOCC5)c(F)c4)c3c2)ccn1 [Compound 1, 4-(4-(3-fluoro-4-morpholinophenyl)quinazolin-6-yl)pyridin-2-amine] | 100 to 1000 nM | < 100 nM
Nc1cc(-c2ccc3ncnc(-c4ccc(N5CCN(C(=O)C6CC6)CC5)c(F)c4)c3c2)ccn1 [Compound 53, (4-(4-(6-(2-aminopyridin-4-yl)quinazolin-4-yl)-2-fluorophenyl)piperazin-1-yl)(cyclopropyl)methanone] | < 100 nM | < 100 nM
CN1CCN(c2ncc(-c3ncnc4ccc(-c5c[nH]c6ncccc56)cc34)cc2F)CC1 [Compound 26, 4-(5-fluoro-6-(4-methylpiperazin-1-yl)pyridin-3-yl)-6-(1H-pyrrolo[2,3-b]pyridin-3-yl)quinazoline] | 100 to 1000 nM | < 100 nM
CC(=O)N1CCN(c2ccc(-c3ncnc4ccc(-c5cn[nH]c5)cc34)cc2)CC1 [Compound 37, 1-(4-(4-(6-(1H-pyrazol-4-yl)quinazolin-4-yl)phenyl)piperazin-1-yl)ethan-1-one] | < 100 nM | 
CS(=O)(=O)N1CCN(c2ccc(-c3ncnc4ccc(-c5ccnc(N)c5)cc34)cc2F)CC1 [Compound 47, 4-(4-(3-fluoro-4-(4-(methylsulfonyl)piperazin-1-yl)phenyl)quinazolin-6-yl)pyridin-2-amine] | < 100 nM | < 100 nM
Nc1cc(-c2ccc3ncnc(-c4ccc(N5CC6(C5)CN(C5COC5)C6)c(F)c4)c3c2)ccn1 [Compound 57, 4-(4-(3-fluoro-4-(6-(oxetan-3-yl)-2,6-diazaspiro[3.3]heptan-2-yl)phenyl)quinazolin-6-yl)pyridin-2-amine] | 100 to 1000 nM | 
Nc1cc(-c2ccc3ncnc(-c4ccc(CN5CCOCC5)cc4)c3c2)ccn1 [Compound 18, 4-(4-(4-(morpholinomethyl)phenyl)quinazolin-6-yl)pyridin-2-amine] |  | > 1000 nM
CN1CCN(c2ccc(-c3ncnc4ccc(-c5ccnc(N)c5)cc34)cc2)CC1 [Compound 7, 4-(4-(4-(4-methylpiperazin-1-yl)phenyl)quinazolin-6-yl)pyridin-2-amine] |  | < 100 nM
Nc1cc(-c2ccc3ncnc(-c4ccc(N5CCN(CC6COC6)CC5)c(F)c4)c3c2)ccn1 [Compound 64, 4-(4-(3-fluoro-4-(4-(oxetan-3-ylmethyl)piperazin-1-yl)phenyl)quinazolin-6-yl)pyridin-2-amine] | < 100 nM | 
CS(=O)(=O)N1CCN(c2ccc(-c3ncnc4ccc(-c5ccnc(N)c5)cc34)cc2C(F)(F)F)CC1 [Compound 63, 4-(4-(4-(4-(methylsulfonyl)piperazin-1-yl)-3-(trifluoromethyl)phenyl)quinazolin-6-yl)pyridin-2-amine] | < 100 nM | 
CN[C@H]1CCN(c2ccc(-c3ncnc4ccc(-c5ccnc(N)c5)cc34)cc2F)C1 [Compound 60, (S)-4-(4-(3-fluoro-4-(3-(methylamino)pyrrolidin-1-yl)phenyl)quinazolin-6-yl)pyridin-2-amine] | > 1000 nM | 
Nc1cc(-c2ccc3ncnc(-c4ccc(N5CCOCC5)nc4)c3c2)ccn1 [Compound 10, 4-(4-(6-morpholinopyridin-3-yl)quinazolin-6-yl)pyridin-2-amine] |  | < 100 nM
CS(=O)(=O)N1CCN(c2ccc(-c3ncnc4ccc(-c5ccnc(N)c5)cc34)cc2Cl)CC1 [Compound 59, 4-(4-(3-chloro-4-(4-(methylsulfonyl)piperazin-1-yl)phenyl)quinazolin-6-yl)pyridin-2-amine] | < 100 nM | 
CC(=O)N1CC2(C1)CN(c1ccc(-c3ncnc4ccc(-c5ccnc(N)c5)cc34)cc1F)C2 [Compound 58, 1-(6-(4-(6-(2-aminopyridin-4-yl)quinazolin-4-yl)-2-fluorophenyl)-2,6-diazaspiro[3.3]heptan-2-yl)ethan-1-one] | < 100 nM | 
